Experimental data: a compilation of properties of binary mixtures (doi:10.1016/j.molliq.2012.02.004)

Test: xn = mol fraction of the nth substance listed
Conditions: 101 kPa

CCCCCC[n+]1ccn(C)c1.F[B-](F)(F)F + CC(C)O
viscosity (293.15 K, x2 = 0): 230 mPa·s
viscosity (293.15 K, x2 = 0.1493): 113 mPa·s
viscosity (293.15 K, x2 = 0.2289): 78 mPa·s
viscosity (293.15 K, x2 = 0.2992): 57.1 mPa·s
viscosity (293.15 K, x2 = 0.3752): 41 mPa·s
viscosity (293.15 K, x2 = 0.4942): 24.9 mPa·s
viscosity (293.15 K, x2 = 0.5845): 16.8 mPa·s
viscosity (293.15 K, x2 = 0.7067): 10.05 mPa·s
viscosity (293.15 K, x2 = 0.762): 7.82 mPa·s
viscosity (303.15 K, x2 = 0): 130 mPa·s
viscosity (303.15 K, x2 = 0.2289): 48.2 mPa·s
viscosity (303.15 K, x2 = 0.2992): 36.1 mPa·s
viscosity (303.15 K, x2 = 0.4942): 16.9 mPa·s
viscosity (303.15 K, x2 = 0.9165): 2.65 mPa·s
viscosity (313.15 K, x2 = 0): 78 mPa·s
viscosity (313.15 K, x2 = 0.1493): 42.6 mPa·s
viscosity (313.15 K, x2 = 0.2289): 31.7 mPa·s
viscosity (313.15 K, x2 = 0.3752): 18.8 mPa·s
viscosity (313.15 K, x2 = 0.4942): 12.2 mPa·s
viscosity (313.15 K, x2 = 0.5845): 8.53 mPa·s
viscosity (313.15 K, x2 = 0.7067): 5.15 mPa·s
viscosity (313.15 K, x2 = 0.9165): 1.96 mPa·s
viscosity (323.15 K, x2 = 0.1493): 28.1 mPa·s
viscosity (323.15 K, x2 = 0.3752): 14.6 mPa·s
viscosity (323.15 K, x2 = 0.4942): 9.3 mPa·s
viscosity (323.15 K, x2 = 0.5845): 6.62 mPa·s
viscosity (323.15 K, x2 = 0.7067): 3.95 mPa·s
viscosity (323.15 K, x2 = 0.762): 3.04 mPa·s
viscosity (323.15 K, x2 = 0.9165): 1.5 mPa·s
viscosity (333.15 K, x2 = 0.2289): 16.3 mPa·s
viscosity (333.15 K, x2 = 0.2992): 13.2 mPa·s
viscosity (333.15 K, x2 = 0.4942): 7.04 mPa·s
viscosity (333.15 K, x2 = 0.5845): 5.06 mPa·s
viscosity (333.15 K, x2 = 0.7067): 3.05 mPa·s
viscosity (333.15 K, x2 = 0.9165): 1.02 mPa·s

CC(C)O + CCCCCC[n+]1ccn(C)c1.F[B-](F)(F)F
viscosity (293.15 K, x1 = 1): 2.36 mPa·s
viscosity (303.15 K, x1 = 1): 1.77 mPa·s
viscosity (313.15 K, x1 = 1): 1.33 mPa·s
viscosity (323.15 K, x1 = 1): 1.01 mPa·s
